The numbers were not newly measured in US8691277B2, “Long acting sustained-release formulation containing dopamine receptor agonist and the preparation method thereof” (Shandong Luye Pharmaceutical Co., Ltd., priority 2004, dated 2014), which cites them from elsewhere.

Structures are written as SMILES.

For series [1] the following is noted: in vivo.
The conditions of series [2]: in vivo, po.

Take `CCCN(CCc1cccs1)[C@H]1CCc2c(O)cccc2C1` [rotigotine]: in series [1], the half-life result was “only a couple of hours”. Moreover, the bioavailability in series [2] is listed as 1-5%.
Consider `CCCN[C@H]1CCc2nc(N)sc2C1` [pramipexole], for which the half-life entry in series [1] is on record as “only a couple of hours”.
